≈ marks a conversion by molar mass, not a printed value. Where two headings read alike, the source gives them in different places. Starred links: 1 amine or outer side, 2 acyl side, 3 side chain; linkers in the order of their positions; H or OH if unused. Positions of bridges follow the written chain, without caps; N, C: chain ends. Residues, ends and D or L forms follow the SMILES beside them. *: point of attachment. C20 diacid = O=C(O)CCCCCCCCCCCCCCCCCCC(=O)*; γGlu = O=C(O)[C@H](CCC(=O)[*:2])N[*:1]
Tests used:
[1] = Assay (III) ThT fibrillation assay for physical stability; type: physicochemical; conditions: ThT fibrillation assay
Summary of the method: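 Freshly prepared formulations, pH-adjusted, with 1 μM ThT; four or eight replicates incubated at 37 °C under 960 rpm orbital shaking. Fluorescence (ex 444/em 485 nm) read every 20 min; […]. Peptide concentration measured by RP-HPLC before and after the run.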

[2] = Assay (IV) determination of solubility; type: physicochemical
Summary of the method: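 Polypeptide in water (~500 nmol/ml stock) was mixed 1:1 with 100 mM buffers from pH 3.0 to 8.0 (glycylglycine pH 3.0–5.0; bistrispropane pH 6.0–8.0). After 18 hours at room temperature, samples were centrifuged and the polypeptide remaining in solution was quantified by HPLC.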

[3] = bistrispropane buffer, pH 6, pH 6.0, read-out: Solubility pH 6.0
[4] = bistrispropane buffer, pH 6.5, pH 6.5, read-out: Solubility pH 6.5
[5] = bistrispropane buffer, pH 7, pH 7.0, read-out: Solubility pH 7.0
[6] = bistrispropane buffer, pH 7.5, pH 7.5, read-out: Solubility pH 7.5
[7] = bistrispropane buffer, pH 8, pH 8.0, read-out: Solubility pH 8.0
[8] = glycylglycine buffer, pH 3, pH 3.0, read-out: Solubility pH 3.0
[9] = glycylglycine buffer, pH 4, pH 4.0, 18 hours at room temperature, Table 2, read-out: Solubility pH 4.0
[10] = glycylglycine buffer, pH 4, pH 4.0, read-out: Solubility pH 4.0
[11] = glycylglycine buffer, pH 5, pH 5.0, read-out: Solubility pH 5.0
[12] = bistrispropane buffer, pH 7, pH 7.0, 18 hours at room temperature, Table 3, read-out: Solubility pH 7.0

Structure (SMILES) | ThT pH 4.0 lag time (h) [1] | solubility at 18 h [2, 3] | solubility at 18 h [2, 4] | solubility at 18 h [2, 5] | solubility at 18 h [2, 6] | solubility at 18 h [2, 7] | solubility at 18 h [2, 8] | solubility at 18 h [2, 9] | solubility at 18 h [2, 10] | solubility at 18 h [2, 11] | solubility at 18 h [2, 12] | solubility at 18 h ([2]; pH 8.0, read-out: Solubility pH 8.0)
CC[C@H](C)[C@H](NC(=O)[C@@H]1CCCN1C(=O)CNC(=O)[C@H](Cc1ccccc1)NC(=O)[C@H](CC(N)=O)NC(=O)[C@H](CC(N)=O)NC(=O)[C@H](CO)NC(=O)[C@H](CO)NC(=O)[C@H](CCCNC(=N)N)NC(=O)[C@H](Cc1c[nH]cn1)NC(=O)[C@H](CC(C)C)NC(=O)[C@H](Cc1ccccc1)NC(=O)[C@H](CCC(=O)O)NC(=O)[C@H](C)NC(=O)[C@H](CC(C)C)NC(=O)[C@H](CCCNC(=N)N)NC(=O)[C@H](CCC(N)=O)NC(=O)[C@@H](NC(=O)[C@H](C)NC(=O)[C@@H]1CSSC[C@H](NC(=O)[C@H](Cc2c[nH]cn2)NC(=O)CC[C@H](NC(=O)CCCCCCCCCCCCCCCCCCC(=O)O)C(=O)O)C(=O)N[C@@H](CC(N)=O)C(=O)N[C@@H]([C@@H](C)O)C(=O)N[C@@H](C)C(=O)N[C@@H]([C@@H](C)O)C(=O)N1)[C@@H](C)O)C(=O)N[C@@H](CC(C)C)C(=O)N1CCC[C@H]1C(=O)N1CCC[C@H]1C(=O)N[C@H](C(=O)N[C@@H](CC(N)=O)C(=O)N[C@H](C(=O)NCC(=O)N[C@@H](CO)C(=O)N[C@@H](CC(N)=O)C(=O)N[C@H](C(=O)N[C@@H](Cc1ccc(O)cc1)C(N)=O)[C@@H](C)O)C(C)C)[C@@H](C)O [Example 1, N-alpha-[(S)-4-Carboxy-4-(19-carboxynonadecanoylamino)butyryl]-[His1,Glu14,His17,Arg18]-pramlintide] ({C20 diacid-γGlu}-HCNTATCATQRLAEFLHRSSNNFGPILPPTNVGSNTY-NH2; disulfide 2-7 (inferred)) | 11 h | 52 µM (≈ 233 µg/mL) | 16 µM (≈ 71.7 µg/mL) | 15 µM (≈ 67.3 µg/mL) | 58 µM (≈ 260 µg/mL) | 138 µM (≈ 619 µg/mL) | > 200 µM | > 200 µM | > 200 µM | > 200 µM |  | 
CC[C@H](C)[C@H](NC(=O)[C@H](CCC(=O)O)NC(=O)CNC(=O)[C@H](Cc1ccccc1)NC(=O)[C@H](CC(N)=O)NC(=O)[C@H](CC(N)=O)NC(=O)[C@H](CO)NC(=O)[C@H](CO)NC(=O)[C@H](CCCNC(=N)N)NC(=O)[C@H](Cc1c[nH]cn1)NC(=O)[C@H](CC(C)C)NC(=O)[C@H](Cc1ccccc1)NC(=O)[C@H](CCC(=O)O)NC(=O)[C@H](C)NC(=O)[C@H](CC(C)C)NC(=O)[C@H](CCCNC(=N)N)NC(=O)[C@H](CCC(N)=O)NC(=O)[C@@H](NC(=O)[C@H](C)NC(=O)[C@@H]1CSSC[C@H](NC(=O)[C@H](Cc2c[nH]cn2)NC(=O)CC[C@H](NC(=O)CCCCCCCCCCCCCCCCCCC(=O)O)C(=O)O)C(=O)N[C@@H](CC(N)=O)C(=O)N[C@@H]([C@@H](C)O)C(=O)N[C@@H](C)C(=O)N[C@@H]([C@@H](C)O)C(=O)N1)[C@@H](C)O)C(=O)N[C@@H](CC(C)C)C(=O)N[C@@H](CO)C(=O)N[C@@H](CCCNC(=N)N)C(=O)N[C@H](C(=O)N[C@@H](CC(N)=O)C(=O)N[C@H](C(=O)NCC(=O)N[C@@H](CO)C(=O)N[C@@H](CC(N)=O)C(=O)N[C@H](C(=O)N[C@@H](Cc1ccc(O)cc1)C(N)=O)[C@@H](C)O)C(C)C)[C@@H](C)O [Example 7, N-alpha-[(S)-4-Carboxy-4-(19-carboxynonadecanoylamino)butyryl]-[His1,Glu14,His17,Arg18,Glu25,Ser28,Arg29]-pramlintide] ({C20 diacid-γGlu}-HCNTATCATQRLAEFLHRSSNNFGEILSRTNVGSNTY-NH2; disulfide 2-7 (inferred); C-terminus assumed) | 0 h | 69 µM (≈ 315 µg/mL) | 32 µM (≈ 146 µg/mL) | 42 µM (≈ 192 µg/mL) | 89 µM (≈ 406 µg/mL) | 155 µM (≈ 708 µg/mL) | > 200 µM | > 200 µM | > 200 µM | 13 µM (≈ 59.3 µg/mL) |  | 
CC[C@H](C)[C@H](NC(=O)[C@@H]1CCCN1C(=O)CNC(=O)[C@H](Cc1ccccc1)NC(=O)[C@H](CC(N)=O)NC(=O)[C@H](CC(N)=O)NC(=O)[C@H](CO)NC(=O)[C@H](CO)NC(=O)[C@H](CCCNC(=N)N)NC(=O)[C@H](Cc1c[nH]cn1)NC(=O)[C@H](CC(C)C)NC(=O)[C@H](Cc1ccccc1)NC(=O)[C@H](CCC(=O)O)NC(=O)[C@H](C)NC(=O)[C@H](CC(C)C)NC(=O)[C@H](CCCNC(=N)N)NC(=O)[C@H](CCC(N)=O)NC(=O)[C@@H](NC(=O)[C@H](C)NC(=O)[C@@H]1CSSC[C@H](NC(=O)[C@H](CCC(=O)O)NC(=O)CC[C@H](NC(=O)CCCCCCCCCCCCCCCCCCC(=O)O)C(=O)O)C(=O)N[C@@H](CC(N)=O)C(=O)N[C@@H]([C@@H](C)O)C(=O)N[C@@H](C)C(=O)N[C@@H]([C@@H](C)O)C(=O)N1)[C@@H](C)O)C(=O)N[C@@H](CC(C)C)C(=O)N1CCC[C@H]1C(=O)N1CCC[C@H]1C(=O)N[C@H](C(=O)N[C@@H](CC(N)=O)C(=O)N[C@H](C(=O)NCC(=O)N[C@@H](CO)C(=O)N[C@@H](CC(N)=O)C(=O)N[C@H](C(=O)N1CCC[C@H]1C(N)=O)[C@@H](C)O)C(C)C)[C@@H](C)O [Example 10, N-alpha-[(S)-4-Carboxy-4-(19-carboxynonadecanoylamino)butyryl]-[Glu1,Glu14,His17,Arg18,Pro37]-pramlintide] ({C20 diacid-γGlu}-ECNTATCATQRLAEFLHRSSNNFGPILPPTNVGSNTP-NH2; disulfide 2-7) |  | > 200 µM | > 200 µM | > 200 µM | > 200 µM | > 200 µM | > 200 µM | > 200 µM | > 200 µM | > 200 µM | > 200 µM | 
CC[C@H](C)[C@H](NC(=O)[C@@H]1CCCN1C(=O)CNC(=O)[C@H](Cc1ccccc1)NC(=O)[C@H](CC(N)=O)NC(=O)[C@H](CC(N)=O)NC(=O)[C@H](CO)NC(=O)[C@H](CO)NC(=O)[C@H](Cc1c[nH]cn1)NC(=O)[C@H](Cc1c[nH]cn1)NC(=O)[C@H](CC(C)C)NC(=O)[C@H](Cc1ccccc1)NC(=O)[C@H](CCC(=O)O)NC(=O)[C@H](C)NC(=O)[C@H](CC(C)C)NC(=O)[C@H](CCCNC(=N)N)NC(=O)[C@H](CCC(N)=O)NC(=O)[C@@H](NC(=O)[C@H](C)NC(=O)[C@@H]1CSSC[C@H](NC(=O)[C@H](Cc2c[nH]cn2)NC(=O)CC[C@H](NC(=O)CCCCCCCCCCCCCCCCCCC(=O)O)C(=O)O)C(=O)N[C@@H](CC(N)=O)C(=O)N[C@@H]([C@@H](C)O)C(=O)N[C@@H](C)C(=O)N[C@@H]([C@@H](C)O)C(=O)N1)[C@@H](C)O)C(=O)N[C@@H](CC(C)C)C(=O)N1CCC[C@H]1C(=O)N1CCC[C@H]1C(=O)N[C@H](C(=O)N[C@@H](CC(N)=O)C(=O)N[C@H](C(=O)NCC(=O)N[C@@H](CO)C(=O)N[C@@H](CC(N)=O)C(=O)N[C@H](C(=O)N[C@@H](Cc1ccc(O)cc1)C(N)=O)[C@@H](C)O)C(C)C)[C@@H](C)O [Example 18, N-alpha-[(S)-4-Carboxy-4-(19-carboxynonadecanoylamino)butyryl]-[His1,Glu14,His17]-pramlintide] ({C20 diacid-γGlu}-HCNTATCATQRLAEFLHHSSNNFGPILPPTNVGSNTY-NH2; disulfide 2-7 (inferred); C-terminus assumed) |  | > 200 µM | 153 µM (≈ 683 µg/mL) | 191 µM (≈ 853 µg/mL) | > 200 µM | > 200 µM | > 200 µM | > 200 µM | > 200 µM | > 200 µM | 191 µM (≈ 853 µg/mL) | 
CC[C@H](C)[C@H](NC(=O)[C@@H]1CCCN1C(=O)CNC(=O)[C@H](Cc1ccccc1)NC(=O)[C@H](CC(N)=O)NC(=O)[C@H](CC(N)=O)NC(=O)[C@H](CO)NC(=O)[C@H](CO)NC(=O)[C@H](Cc1c[nH]cn1)NC(=O)[C@H](Cc1c[nH]cn1)NC(=O)[C@H](CC(C)C)NC(=O)[C@H](Cc1ccccc1)NC(=O)[C@H](CCC(=O)O)NC(=O)[C@H](C)NC(=O)[C@H](CC(C)C)NC(=O)[C@H](CCCNC(=N)N)NC(=O)[C@H](CCC(N)=O)NC(=O)[C@@H](NC(=O)[C@H](C)NC(=O)[C@@H]1CSSC[C@H](NC(=O)[C@H](Cc2c[nH]cn2)NC(=O)[C@H](Cc2c[nH]cn2)NC(=O)[C@H](Cc2c[nH]cn2)NC(=O)CC[C@H](NC(=O)CCCCCCCCCCCCCCCCCCC(=O)O)C(=O)O)C(=O)N[C@@H](CC(N)=O)C(=O)N[C@@H]([C@@H](C)O)C(=O)N[C@@H](C)C(=O)N[C@@H]([C@@H](C)O)C(=O)N1)[C@@H](C)O)C(=O)N[C@@H](CC(C)C)C(=O)N1CCC[C@H]1C(=O)N1CCC[C@H]1C(=O)N[C@H](C(=O)N[C@@H](CC(N)=O)C(=O)N[C@H](C(=O)NCC(=O)N[C@@H](CO)C(=O)N[C@@H](CCCNC(=N)N)C(=O)N[C@H](C(=O)N[C@@H](Cc1ccc(O)cc1)C(N)=O)[C@@H](C)O)C(C)C)[C@@H](C)O [Example 21, N-alpha-[(S)-4-Carboxy-4-(19-carboxynonadecanoylamino)butyryl]-His-His-[His1,Glu14,His17,Arg35]-pramlintide] ({C20 diacid-γGlu}-HHHCNTATCATQRLAEFLHHSSNNFGPILPPTNVGSRTY-NH2; disulfide 4-9 (inferred)) | 1 h | > 200 µM | 87 µM (≈ 416 µg/mL) |  |  |  | > 200 µM | > 200 µM | > 200 µM | > 200 µM |  | 1 µM (≈ 4.78 µg/mL)

Reference: US8722849B2, “Polypeptides” (Novo Nordisk A/S, priority 2011, dated 2014)
